Here are results for five compounds from PubChem BioAssay AID2060614 (Molecular Pharmacology Branch, DTP, NCI, 2025).

Several values for one entry are separate records, joined by “and”; a condition that tells them apart may be missing. Equal entries are not always repeated. Some results are limits rather than exact numbers.

For this test, the system named is 598228-144-R-J1-PDC complex spheroids, viability. The experiment in a line: Anticancer human tumor 598228-144-R-J1-PDC patient-derived serous endometrial adenocarcinoma cell line growth inhibition [CLK]. The settings on record: for viability, T/C: stronger effect = lower value. From the text:
A high-throughput screen of multi-cell type tumor spheroids was designed to identify active combinations of […] and targeted small molecules. Complex spheroids include a stromal component modeled by human endothelial cells (HUVEC) and fibroblasts modeled by human mesenchymal stem cells (MSCs). The concentration ranges selected for each drug and investigational agent were based upon clinically achievable concentrations if the clinical Cmax of the agent was known.
Compounds. The drugs and investigational agents: cirtuvivint (SM08502; NSC835563), CC-671 (NSC850746), vemurafenib (NSC761431), tapotoclax (NSC804041), sotorasib (NSC818433), adagrasib (NSC831453), MRTX-1133 (NSC836407), BAY2416964 (NSC825713), copanlisib (NSC816437), inavolisib (NSC800729), abemaciclib (NSC768073), osimertinib (NSC779217), entinostat (NSC756642), eltanexor (KPT-8602, NSC794443), venetoclax (NSC766270), ceralasertib (NSC777638), bortezomib (NSC756655), olaparib (NSC753686), talazoparib (NSC767125), alisertib (NSC759677), peposertib (NSC802822), gemcitabine (NSC613327), 5-fluorouracil (NSC19893), SN-38 (NSC673596), oxaliplatin (NSC266046), paclitaxel (NSC125973), and doxorubicin (NSC123127), were obtained from the National Cancer Institute (NCI) Developmental Therapeutics Program Chemical Repository. The FDA-approved anticancer drug set is available from the Developmental Therapeutics Program at https://dtp.cancer.gov/organization/dscb/obtaining/available plates.htm. […] The stock solutions were prepared in dimethyl sulfoxide (DMSO, Sigma-Aldrich, St. Louis, MO, cat. D2650), except for the platinum complexes which were prepared in saline (Quality Biological, Gaithersburg, MD, cat. 114-055-101), at 800-fold the tested concentration and stored at -70 degrees C prior to their use. All drugs and investigational agents were tested over a range starting from a high concentration at or near the clinical Cmax and decreasing in half-log increments. If the clinical Cmax for an agent had not been determined, the highest concentration tested was 10 microM.
Cell Culture. All cells were maintained in an incubator at 37 degrees C and 5% CO2 with 95% humidity. The PDC lines were cultured according to standard operating procedures established by the NCI PDMR. Briefly, all PDCs were thawed and cultured in Matrigel-coated flasks prepared with a working solution of 1X Ham's F-12 nutrient mix, without supplementation (Invitrogen, Waltham, MA, cat. 11765054), 100 U/mL penicillin-streptomycin (Invitrogen, cat. 15140122), and 2.5% Matrigel (Corning Inc., Corning, NY, cat. 354248) for the first three passages. The 947758-054-R-J2-PDC line was cultured in 6B/Colon 1A media, which includes advanced DMEM/F-12 (Thermo Fisher Scientific, cat. 12634028), 10 mM HEPES (Thermo Fisher Scientific, cat. 15630080), 1X GlutaMAX supplement (Thermo Fisher Scientific, cat. 35050061), 0.1 mg/mL primocin (InvivoGen, cat. ant-pm-2), 10% defined fetal bovine serum, heat inactivated (HyClone Laboratories Inc., cat. SH30070.03HI), 1.25 mM N-Acetyl-L-cysteine (Sigma-Aldrich, cat. A9165), 10 mM nicotinamide (Sigma-Aldrich, cat. N0636), 1X B-27 supplement (Thermo Fisher Scientific, cat. 17504044), 1X N-2 supplement (Thermo Fisher Scientific, cat. 17502048), and 10 microM Y-27632 dihydrochloride (Tocris Bioscience, cat. 1254). The 876862-298-R-J1-PDC was cultured in 6E media, which includes all 6B/Colon 1A media components plus 50% L-WRN conditioned media (ATCC, cat. CRL-3276), 50 ng/mL recombinant human EGF recombinant protein (hEGF; Thermo Fisher Scientific, cat. PHG0311), 10 ng/mL recombinant human fibroblast growth factor 10 (hGFG-10; PeproTech, cat. 100-26), 1 ng/mL recombinant human fibroblast growth factor 2 (hFGF-2; PeproTech, cat. 100-18B), and 1 µM prostaglandin E2 (PGE2; Tocris, cat. 2296). The 227483-062-R1-J1-PDC line was cultured in Panc media, containing all 6E components except hFGF-2, with the addition of 500 nM SB-431542 (Selleckchem, cat. S1067) and 10 nM gastrin (Tocris, cat. 3006). […]

Setting [1] is: curve of first compound, second compound 0.0316 µM.
[2] abbreviates: curve of first compound, second compound 0.1 µM.
The mark [3] stands for this setting: curve of first compound, second compound 0.316 µM.
Where [4] appears, read: curve of first compound, second compound 1 µM.
The mark [5] stands for this setting: curve of first compound, second compound 3.16 µM.
The mark [6] stands for this setting: curve of first compound, second compound 10 µM.
Where [7] appears, read: second compound 0.0316 µM, first compound 0.0316 µM.
Where [8] appears, read: second compound 0.0316 µM, first compound 0.1 µM.
[9] abbreviates: second compound 0.0316 µM, first compound 0.316 µM.
[10] abbreviates: second compound 0.0316 µM, first compound 1 µM.
The mark [11] stands for this setting: second compound 0.0316 µM, first compound 3.16 µM.
The mark [12] stands for this setting: second compound 0.0316 µM, first compound 10 µM.
Where [13] appears, read: second compound 0.1 µM, first compound 0.0316 µM.
Setting [14] is: second compound 0.1 µM, first compound 0.1 µM.
Setting [15] is: second compound 0.1 µM, first compound 0.316 µM.
Setting [16] is: second compound 0.1 µM, first compound 1 µM.
Setting [17] is: second compound 0.1 µM, first compound 3.16 µM.
Where [18] appears, read: second compound 0.1 µM, first compound 10 µM.
Setting [19] is: second compound 0.316 µM, first compound 0.0316 µM.
Where [20] appears, read: second compound 0.316 µM, first compound 0.1 µM.
The mark [21] stands for this setting: second compound 0.316 µM, first compound 0.316 µM.
The mark [22] stands for this setting: second compound 0.316 µM, first compound 1 µM.
Setting [23] is: second compound 0.316 µM, first compound 3.16 µM.
[24] abbreviates: second compound 0.316 µM, first compound 10 µM.
Where [25] appears, read: second compound 1 µM, first compound 0.0316 µM.
Where [26] appears, read: second compound 1 µM, first compound 0.1 µM.
Where [27] appears, read: second compound 1 µM, first compound 0.316 µM.
Where [28] appears, read: second compound 1 µM, first compound 1 µM.
Setting [29] is: second compound 1 µM, first compound 3.16 µM.
Where [30] appears, read: second compound 1 µM, first compound 10 µM.
[31] abbreviates: second compound 3.16 µM, first compound 0.0316 µM.
Setting [32] is: second compound 3.16 µM, first compound 0.1 µM.
[33] abbreviates: second compound 3.16 µM, first compound 0.316 µM.
Where [34] appears, read: second compound 3.16 µM, first compound 1 µM.
[35] abbreviates: second compound 3.16 µM, first compound 3.16 µM.
The mark [36] stands for this setting: second compound 3.16 µM, first compound 10 µM.
Where [37] appears, read: second compound 10 µM, first compound 0.0316 µM.
[38] abbreviates: second compound 10 µM, first compound 0.1 µM.
[39] abbreviates: second compound 10 µM, first compound 0.316 µM.
The mark [40] stands for this setting: second compound 10 µM, first compound 1 µM.
Where [41] appears, read: second compound 10 µM, first compound 3.16 µM.
The mark [42] stands for this setting: second compound 10 µM, first compound 10 µM.
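Also: spheroids exposed to compounds for seven days before readout.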
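For viability, T/C in this document: 100% = DMSO vehicle control wells.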

On to `NC(=O)C(=Cn1cnc(-c2cc(C(F)(F)F)cc(C(F)(F)F)c2)n1)c1cncnc1`, for which the viability, T/C (commonly the ratio of treated to control) is 89% and 103% (compound 0.00949 µM); 80.9% and 101% (compound 0.03 µM); 52.1% and 86.2% (compound 0.0949 µM); 32% and 38.9% (compound 0.3 µM); 15% and 30.6% (compound 0.949 µM); 18.1% and 21.5% (compound 3 µM). Also, the IC50 (usually the concentration at which inhibition is half-maximal) (curve of compound) was 114 nM and 232 nM.
Regarding `COC1C=CCC(C)C(C)S(=O)(=O)NC(=O)c2ccc3c(c2)N(CC2CCC21)CC1(CCCc2cc(Cl)ccc21)CO3` (stereo not given), the viability, T/C reads like this: (compound 0.0316 µM) 106% and 108%; (compound 0.1 µM) 80.2% and 85.4%; (compound 0.316 µM) 61% and 66.5%; (compound 1 µM) 55.6% and 58.4%; (compound 3.16 µM) 56.3% and 56.4%; (compound 10 µM) 34.4% and 20.1%. The IC50 (curve of compound) was 1870 nM and 1810 nM.
Regarding `O=C(c1cc(Cc2n[nH]c(=O)c3ccccc23)ccc1F)N1CCN(C(=O)C2CC2)CC1`, the viability, T/C (compound 0.0316 µM) was 93.1% and 97.7%; the viability, T/C (compound 0.1 µM) was 87.5% and 104%; the viability, T/C (compound 0.316 µM) is 95.4% and 94.2%; the viability, T/C (compound 1 µM) was 94.4% and 105%; the viability, T/C (compound 3.16 µM) was 97.5% and 103%; the viability, T/C (compound 10 µM) is 88% and 87.2%. The IC50 (curve of compound) was over 10000 nM.
As for `Nc1ccn(C2OC(CO)C(O)C2(F)F)c(=O)n1` (stereo not given) + CNC(=O)c1ccc(Nc2nc(OC3CCCC3)c3c(-c4ccc5nc(C)oc5c4)c[nH]c3n2)c(OC)c1, the IC50 is, setting by setting: under setting [1], under 31.6 nM; under setting [2], under 31.6 nM; under setting [3], 54.3 nM; under setting [4], 53.7 nM; under setting [5], 48.9 nM; under setting [6], 44.9 nM. Besides, the viability, T/C by setting is: under setting [7], 50.8%; under setting [8], 36.9%; under setting [9], 27.4%; under setting [10], 34.7%; under setting [11], 39%; under setting [12], 34.4%. Also, the viability, T/C is 57.3% under setting [13]; 33.6% under setting [14]; 26.9% under setting [15]; 36.3% under setting [16]; 36.4% under setting [17]; 34.7% under setting [18]. For the same compound, the viability, T/C under setting [19] is 63.4%; the viability, T/C under setting [20] was 34.5%; the viability, T/C under setting [21] is 32.2%; the viability, T/C under setting [22] is 29.6%; the viability, T/C under setting [23] is 39.5%; the viability, T/C under setting [24] was 37%. The viability, T/C is 65.3% under setting [25]; 32.6% under setting [26]; 23.9% under setting [27]; 29% under setting [28]; 36.4% under setting [29]; 28.7% under setting [30]. Moreover, the viability, T/C is, setting by setting: under setting [31], 63%; under setting [32], 24.2%; under setting [33], 26.2%; under setting [34], 24.3%; under setting [35], 34.3%; under setting [36], 33.6%. For the same compound, the viability, T/C runs as follows: under setting [37], 60.2%; under setting [38], 26.9%; under setting [39], 21.4%; under setting [40], 22.6%; under setting [41], 26.5%; under setting [42], 31.5%.
Turning to `CC(CO)NC(=O)c1cc(-c2ccc(Cl)cc2)nn(-c2cnn(C)c2)c1=O` (stereo not given) + CNC(=O)c1ccc(Nc2nc(OC3CCCC3)c3c(-c4ccc5nc(C)oc5c4)c[nH]c3n2)c(OC)c1, the IC50 is over 10000 nM under setting [1]; over 10000 nM under setting [2]; over 10000 nM under setting [3]; over 10000 nM under setting [4]; over 10000 nM under setting [5]; over 10000 nM under setting [6]. The viability, T/C by setting is: under setting [7], 124%; under setting [8], 102%; under setting [9], 102%; under setting [10], 104%; under setting [11], 92.8%; under setting [12], 94.4%. Further, the viability, T/C runs as follows: under setting [13], 94.9%; under setting [14], 107%; under setting [15], 96.5%; under setting [16], 103%; under setting [17], 106%; under setting [18], 83.8%. Further, the viability, T/C is, setting by setting: under setting [19], 111%; under setting [20], 104%; under setting [21], 92.8%; under setting [22], 96.5%; under setting [23], 106%; under setting [24], 96.8%. Further, the viability, T/C by setting is: under setting [25], 111%; under setting [26], 104%; under setting [27], 112%; under setting [28], 105%; under setting [29], 111%; under setting [30], 87.6%. Further, the viability, T/C by setting is: under setting [31], 85.7%; under setting [32], 94.7%; under setting [33], 92.2%; under setting [34], 102%; under setting [35], 94.8%; under setting [36], 81.4%. Moreover, the viability, T/C was 90.4% under setting [37]; 77% under setting [38]; 95.8% under setting [39]; 77.5% under setting [40]; 112% under setting [41]; 83.1% under setting [42].
